Legend:
Bacillus cereus = experiment: Agar well diffusion, zone of inhibition; assay type: cell-based; settings: 37 °C, 24 h
Method: (§1) Antibacterial potential of isolated compound was investigated against both Gram-positive and Gram-negative bacterial strains; Escherichia coli, Bacillus cereus, Salmonella typhi, Klebsiella pneumonia, Pseudomonas aeruginosa and Proteus mirabilis. Bacterial strains were provided by the Department of Pharmacy, University of Malakand, Khyber Pakhtunkhwa, Pakistan, and were kept at 4 °C in agar slants in freeze-dried condition until further use.
(§2) Both Gram-positive and Gram-negative bacterial strains Escherichia coli, Bacillus cereus, Salmonella typhi, Klebsiella pneumonia, Pseudomonas aeruginosa and Proteus mirabilis organism viable count per mL in the stock suspension was determined using surface viable counting technique. About 10^8–10^9 colony-forming units (CFU) per mL were used as inoculum in subsequent experiments. A fresh stock suspension was used each time.
(§3) The antibacterial activity of the isolated compounds (morin, phloroglucinol, and 1-hexyl benzene) was determined using agar well diffusion method. Muller–Hinton agar media was prepared and autoclaved at 15 lbs pressure for 20 min and cooled to 45 °C. The standard bacterial stock suspension 10^8–10^9 CFU/mL were spread on Muller–Hinton agar plates and five wells (3 mm in diameter; four on side and one in center) were punched in plates using a sterile cork borer. The entire wells were filled with 100 µL of the isolated compounds (stock solution: 1 mg/mL) using microtiter-pipette and allowed to diffuse at room temperature for 2 h. The plates were incubated at 37 °C for 24 h. In the center hole, Imipenem was added which served as positive control. Simultaneous, addition of an equal concentration of DMSO solvent instead of isolated compounds was used as blank. After incubation, the zones of inhibition were measured in millimeters (mm) and mean values were calculated. The experiments were performed in triplicates.

Escherichia coli = experiment: Agar well diffusion, zone of inhibition; assay type: cell-based; settings: 37 °C, 24 h
Method: as §1, §2, §3

Proteus mirabilis = experiment: Agar well diffusion, zone of inhibition; assay type: cell-based; settings: 37 °C, 24 h
Method: as §1, §2, §3

Pseudomonas aeruginosa = experiment: Agar well diffusion, zone of inhibition; assay type: cell-based; settings: 37 °C, 24 h
Method: as §1, §2, §3

Klebsiella pneumonia = experiment: Agar well diffusion, zone of inhibition; assay type: cell-based; settings: Klebsiella pneumoniae, 37 °C, 24 h
Method: as §1, §2, §3

Salmonella typhi = experiment: Agar well diffusion, zone of inhibition; assay type: cell-based; settings: Salmonella enterica, TYPHI, 24 h
Staphylococcus aureus = experiment: Agar well diffusion, zone of inhibition; assay type: cell-based; settings: 37 °C, 24 h
Method: as §3, with “The standard bacterial stock suspension 10^8–10^9 CFU/mL were spread on Muller–Hinton agar plates and five wells (3 mm in diameter; four on side and one in center) were punched in plates using a sterile cork borer.” left out

[1] = molecular target: Type-I α-glucosidase (Baker Yeast) (Saccharomyces cerevisiae, UniProt P53341); experiment: In vitro α-glucosidase inhibition assay (PNPG); assay type: biochemical
Description: Chemicals such as Tween-80 (Scharlau-chem., Barcelona, Spain), normal saline solution (Utsoka Pharma, Las Bela Baluchistan, Pakistan), lipid profile tests kits (Human, Hamburg, Germany), renal profile tests kits, and antioxidant enzymes kits (Biomed: Germany; diagnostic) were used in in vivo study. Mueller Hinton (MH) agar and broth (Merck, Modderfontein, South Africa) were used to culture the bacterial strains. Various solvents such as methanol, n-hexane, ethyl acetate, and chloroform (Merck, Darmstadt, Germany) were also used in this study.
The α-glucosidase inhibition potential of morin was determined according to the reported method with minor changes. The reaction mixture was prepared by taking 100 μL α-glucosidase (0.5 unit/mL), 600 μL phosphate buffer (0.1 M; pH 6.9), and 50 μL of isolated compounds (morin, phloroglucinol, and 1-hexyl benzene) with serial dilutions of 31.05, 62.5, 125, 250, 500 and 1000 µg/mL. All the reaction mixtures were incubated at 37 °C for 15 min. The enzymatic reactions were started by adding 100 μL substrate (p-nitro-phenyl-α-D-glucopyranoside) solution (5 mM) formed in phosphate buffer (0.1 M; pH 6.9), finally incubated at 37 °C for 15 min. The reaction was completed by adding sodium carbonate (400 μL; 0.2 M) solution and then at 405 nm absorbance was measured. The blank solution was prepared containing only isolated compounds without α-glucosidase. Percent α-glucosidase inhibition potential was calculated using Equation (3): (3) % α − glucosidase Inhibition =control absorbance−sample absorbance/control absorbance×100
(§4) All the in vitro and in vivo experiments were analyzed in three replicates and determined as mean ± SEM. Student’s t-test and one way ANOVA followed by Dunnett’s post hoc multiple comparison test was used. p ≤ 0.05 were considered as significant. Linear regression analysis was used to calculate the IC50 value for % DPPH, ABTS, α-amylase, and α-glucosidase inhibition against the different concentrations of the test samples by means of Excel program 2007.

[2] = molecular target: T1, Type-VI α-amylase (porcine pancreas) (Sus scrofa, UniProt P00690); experiment: In vitro α-amylase inhibition assay (DNSA); assay type: biochemical; settings: read-out: % α-Amylase Inhibition Mean ± SEM
T1 construct: purchased Sigma Aldrich (Darmstadt, Germany); host or cells: porcine pancreas
T1 sequence (P00690 16-511): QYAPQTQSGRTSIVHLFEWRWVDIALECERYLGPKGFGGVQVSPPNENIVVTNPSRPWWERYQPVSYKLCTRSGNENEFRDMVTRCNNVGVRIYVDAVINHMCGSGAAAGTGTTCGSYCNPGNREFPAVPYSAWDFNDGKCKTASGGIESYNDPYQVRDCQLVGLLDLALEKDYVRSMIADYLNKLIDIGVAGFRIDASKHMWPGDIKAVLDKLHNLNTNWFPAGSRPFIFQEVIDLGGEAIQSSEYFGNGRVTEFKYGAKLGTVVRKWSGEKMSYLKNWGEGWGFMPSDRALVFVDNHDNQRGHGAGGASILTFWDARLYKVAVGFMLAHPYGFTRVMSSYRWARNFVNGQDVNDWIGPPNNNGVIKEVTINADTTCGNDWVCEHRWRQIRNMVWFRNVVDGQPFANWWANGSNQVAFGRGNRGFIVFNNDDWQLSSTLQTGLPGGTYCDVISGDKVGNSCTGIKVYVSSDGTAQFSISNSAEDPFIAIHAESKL
Method: The α-amylase inhibition activity of morin was assessed using 3, 5-dinitrosalicylic acid (DNSA) assay. Morin, phloroglucinol, and 1-hexyl benzene were dissolved in mixture of 10% DMSO, 0.02M Na2HPO4/NaH2PO4 buffer, and 0.006M NaCl (pH 6.9) and finally dilutions (31.05, 62.5, 125, 250, 500 and 1000 µg/mL) were prepared. In total, 200 μL α-amylase (2 units/mL) was mixed with 200 μL morin and incubated at 30 °C for 10 min. After that, 200 μL starch (1%) was added to each serial dilution and incubated for 3 min. To stop the reaction 200 μL sodium potassium tartrate tetrahydrate reagent, 2M NaOH, and […] DNSA (96mM) reagent were added to the reaction mixture. The reaction mixtures were boiled for 10 min at 85–90 °C in a water bath. After cooling the mixture was diluted with 5mL distilled water and finally at 540 nm absorbance was recorded. A blank solution was prepared containing only isolated compound morin but no enzyme. […] The α-amylase enzyme inhibitory activity was calculated by the following Equation (2): (2) % α − amylase Inhibition =control absorbance−sample absorbance/control absorbance×100
as §4

[3] = tested on: STZ-induced diabetic rats; experiment: STZ-induced diabetic rat model: serum biochemical parameters (liver, renal, lipid profile, HbA1c); assay type: in vivo, Sprague Dawley adult albino rats
Method: (§5) All the animals were separated into nine groups having eight animals each (Table 1). In the current investigational study STZ-induced diabetic model was used to evaluate the anti-hyperglycemic and anti-hyperlipidemic activity of isolated compound morin in chronic multiple dose experiment. All the animals were treated with their respective treatments for 21 days starting daily at 09:00 am. The fasting blood glucose levels were determined at 0, 4th, 7th, 10th, 15th, and 21st days with glucometer from the tail vein. Changes in the body weight were recorded for untreated control, diabetic, and treated groups in fasting condition from day 1 to day 21 of experimental period and are presented as % increase in body weight.
(§6) According to the reported protocol diabetes was induced into Sprague Dawley adult albino rats by intraperitoneal injection of STZ (50 mg/kg body weight). Blood samples were collected from the tail vein through glucometer strips by means of SD glucometer and the level of blood glucose was measured 72 h after STZ injection. Normal control groups were given normal saline (8 mL/kg, p.o.) as a vehicle, while isolated compound morin to the treatment groups from 3 days after STZ administration for 3 weeks. Animals with blood glucose levels higher than 300 mg/dL were considered diabetic. During the experiment the blood glucose level and body weights were measured.
On 21st day of in vivo antidiabetic activity, all the animals were anesthetized by intraperitoneal (IP) injection of pentobarbital sodium (35 mg/kg body weight) and euthanized by means of cervical decapitation according to the ARRIVE guidelines. Blood samples were collected by cardiac puncture and transferred to EDTA containing tubes. Blood was centrifuged at 3500 rpm for 10 min for the separation of serum. Biochemical parameters like serum alkaline phosphatase (ALP), serum glutamate pyruvate transaminase (SGPT), serum glutamate oxaloacetate transaminase (SGOT) and lipid parameters like total cholesterol (TC), triglycerides (TG), low-density lipoproteins (LDL), high-density lipoprotein (HDL), and serum creatinine in serum were assessed by using Biochemistry analyzer (PS-520; Shenzhen Procan Electronics-China) using diagnostic kits (Reactivos, GPL Barcelona, Spain). According to the reported protocol an enzyme-linked immunosorbent assay (ELISA) kit was used to evaluate the level of glycosylated hemoglobin (HbA1c).

[4] = tested on: STZ-induced diabetic rats; experiment: STZ-induced diabetic rat model: fasting blood glucose and body weight; assay type: in vivo, Sprague Dawley adult albino rats; settings: vs diabetic control rats
Method: Sprague Dawley adult albino rats (body weight range = 170–200 g) were used in in vivo studies. The animals were purchased from Rifah Institute of Pharmaceutical Sciences Islamabad. The entire animals were given food and fresh water ad libitum. The animals were adjusted at room temperature around 22–25 °C. The animals were housed three rats per cage and maintained with light/dark cycle of about 12 h. All the in vivo procedures were carried out according to the ARRIVE guidelines and approval was taken from the Departmental Animal Ethical Committee (DAEC/2019/1), University of Malakand.
as §5, §6

[5] = tested on: STZ-induced diabetic rats; experiment: Pancreas histopathological assessment (H & E); assay type: in vivo, Sprague Dawley adult albino rats; settings: glibenclamide 5 mg/kg
Description: For histopathological assessment, the pancreas tissues were removed immediately and washed with cold saline solution to remove the blood. Finally, the pancreas portions were fixed in 10% formalin, dehydrated with mixture of ethanol/xylene and then fixed with paraffin. Staining of tissue slides was done with hematoxylin and eosin (H & E) dye through automatic slide stainer (Sakura Tissue-Tek® DRS™ 2000; Tokyo, Japan). According to the reported assay, the stained slides were observed under microscope to see any variation in pancreatic tissue architecture of STZ-induced diabetic group and treated (glibenclamide/morin) groups.

[6] = glibenclamide 0.5 mg/kg, morin 15, 30, and 50 mg/kg, vs diabetic control rats
[7] = glibenclamide 5 mg/kg, morin 15, 30, and 50 mg/kg body weight, serum, day 21, vs diabetic control

Chain of Type-I α-glucosidase (Baker Yeast) (P53341 whole entry): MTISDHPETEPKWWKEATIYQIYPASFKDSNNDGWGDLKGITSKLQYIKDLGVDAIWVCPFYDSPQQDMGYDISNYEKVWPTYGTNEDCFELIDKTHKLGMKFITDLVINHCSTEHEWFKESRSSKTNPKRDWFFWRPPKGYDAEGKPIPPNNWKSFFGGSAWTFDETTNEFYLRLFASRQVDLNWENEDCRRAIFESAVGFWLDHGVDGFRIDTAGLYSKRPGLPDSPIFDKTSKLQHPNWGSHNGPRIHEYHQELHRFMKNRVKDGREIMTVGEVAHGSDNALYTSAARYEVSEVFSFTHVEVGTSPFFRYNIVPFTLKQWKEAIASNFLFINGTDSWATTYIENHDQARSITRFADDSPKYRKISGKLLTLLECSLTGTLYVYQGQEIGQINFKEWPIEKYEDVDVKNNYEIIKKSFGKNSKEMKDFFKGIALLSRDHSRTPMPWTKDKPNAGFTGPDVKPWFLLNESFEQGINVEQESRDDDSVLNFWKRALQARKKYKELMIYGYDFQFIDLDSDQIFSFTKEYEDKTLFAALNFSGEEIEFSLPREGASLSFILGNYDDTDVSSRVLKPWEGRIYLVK

Q: Which results are given for C[C@@H](O)[C@H]1C(=O)N2C(C(=O)O)=C(SCCN=CN)C[C@H]12 [Imipenem, reference compound]?
A: zone of inhibition at 100 µg/mL (Bacillus cereus): 30 ± 0.5 mm; zone of inhibition at 100 µg/mL (Escherichia coli): 33 ± 0.2 mm; zone of inhibition at 100 µg/mL (Proteus mirabilis): 30 ± 0.5 mm; zone of inhibition at 100 µg/mL (Pseudomonas aeruginosa): 27 ± 1.1 mm; zone of inhibition at 100 µg/mL (Klebsiella pneumonia): 29 ± 0.5 mm; zone of inhibition at 100 µg/mL (Salmonella typhi): 33 ± 0.1 mm; zone of inhibition at 100 µg/mL (Staphylococcus aureus): 25 ± 0.3 mm

Q: With C[C@H]1O[C@H](O[C@H]2[C@H](O)[C@@H](O)[C@@H](O[C@H]3[C@H](O)[C@@H](O)C(O)O[C@@H]3CO)O[C@@H]2CO)[C@H](O)[C@@H](O)[C@@H]1N[C@H]1C=C(CO)[C@@H](O)[C@H](O)[C@H]1O (stereo partly shown) [Standard acarbose, acarbose, reference compound] as the compound, how does the “% α-Glucosidase Inhibition Mean ± SEM” value ([1]; 31.05 µg/mL) read?
A: 60 ± 0.4%

Q: What about the “% α-Glucosidase Inhibition Mean ± SEM” value ([1]; 62.5 µg/mL) of the same compound?
A: 68 ± 0.5%

Q: And the “% α-Glucosidase Inhibition Mean ± SEM” value ([1]; 125 µg/mL)?
A: 71 ± 0.5%

Q: And the “% α-Glucosidase Inhibition Mean ± SEM” value ([1]; 250 µg/mL)?
A: 77 ± 1.0%

Q: And the “% α-Glucosidase Inhibition Mean ± SEM” value ([1]; 500 µg/mL)?
A: 82 ± 0.4%

Q: What about the “% α-Glucosidase Inhibition Mean ± SEM” value ([1]; 1000 µg/mL) of the same compound?
A: 89 ± 0.5%

Q: What about the inhibition at 31.05 µg/mL [2] of the same compound?
A: 48 ± 0.4%

Q: What about the inhibition at 62.5 µg/mL [2] of the same compound?
A: 62 ± 0.5%

Q: What about the inhibition at 125 µg/mL [2] of the same compound?
A: 69 ± 0.5%

Q: And the inhibition at 250 µg/mL [2]?
A: 75 ± 1.1%

Q: What about the inhibition at 500 µg/mL [2] of the same compound?
A: 83 ± 0.5%

Q: What about the inhibition at 1000 µg/mL [2] of the same compound?
A: 90 ± 0.5%

Q: Which results are given for COc1ccc(Cl)cc1C(=O)NCCc1ccc(S(=O)(=O)NC(=O)NC2CCCCC2)cc1 [glibenclamide, reference compound]?
A: HDL cholesterol [3, 6]: significantly increased (p < 0.01); HbA1c level [3, 6]: significant decrease (p < 0.01; p < 0.001); LDL level [3, 6]: significant decrease (p < 0.01; p < 0.001); TC level [3, 6]: significant decrease (p < 0.01; p < 0.001); TG level [3, 6]: significant decrease (p < 0.01; p < 0.001); serum creatinine level ([3]; glibenclamide 5 mg/kg, morin 15, 30, and 50 mg/kg body weight, day 21, vs diabetic control): significantly reduced (p < 0.01; p < 0.001); ALP level [3, 7]: significantly reduced (p < 0.01; p < 0.001); SGOT level [3, 7]: significantly reduced (p < 0.01; p < 0.001); SGPT level [3, 7]: significantly reduced (p < 0.01; p < 0.001); body weight ([4]; glibenclamide 0.5 mg/kg, p.o.): significantly (p < 0.001) reversed the diabetes-induced decrease in body weight; fasting glucose level ([4]; glibenclamide 5 mg/kg body weight, day 21): significantly (p < 0.001) decreased; pancreas histopathology [5]: did not show any violation from the normal histological pattern

Reference: publication PMC8348310, “Antioxidants Isolated from Elaeagnus umbellata (Thunb.) Protect against Bacterial Infections and Diabetes in Streptozotocin-Induced Diabetic Rat Model” (Molecules, 2021)
